Laboratory results taken from US9656945B2, “3-acyl-ingenols II” (LEO LABORATORIES LIMITED, priority 2010, dated 2017).
Like-named read-outs stand apart in the source and are kept apart here.

Tests used:
Assay type in all cases: cell-based
[1] = test system: HeLa cells (ATCC CCL-002); test: Necrosis assay; conditions: Homo sapiens, 0.5 h, read-out: HeLa necrosis EC50 range
Procedure: HeLa cells (ATCC CCL-002) were grown in minimal essential medium (Invitrogen catalog no. 42360) containing 10% fetal bovine serum, 100 IU/ml penicillin and 100 μg/ml streptomycin. 4,000-6,000 cells were seeded into 96-well black ViewPlates-plates, clear bottom, (Perkin Elmer) in 100 μl medium and incubated overnight. Compounds were dissolved and pre-diluted in DMSO in 96-well polypropylene plates (Greiner) in a concentration range of 15 μM to 600 μM. At the time of the experiment cell plates were placed on heating blocks at 37° C., medium was removed and 40 μl fresh, pre-warmed medium was added per well. Cells were incubated for 15 min before addition of compounds. In parallel, 3 μl of compounds were diluted with 197 μl growth medium on a Tecan freedom-EVO pipetting station using 250 μl/s pipetting speed, in order to ensure effective mixing of the highly concentrated compound solutions with the aqueous phase. These pre-dilution plates were then equilibrated on heating blocks at 37° C. for 10 min. 80 μl pre-diluted compound were transferred manually to the corresponding wells containing HeLa cells yielding compound concentrations of 10 μM to 400 μM. Control conditions were 1% DMSO in growth medium (100% viability) and 400 μM ingenol mebutate in growth medium (0% viability). Plates were incubated on the heating blocks at 37° C. for 30 min. At the end of the incubation 10 μl PrestoBlue reagent (Invitrogen) were added to each well, plates were sealed with black seal, followed by incubation at 37° C. for 10 min with gentle shaking (150 rpm). Subsequently, plates were placed at room temperature for 20-30 min. Plates were read immediately after on an Envision Fluorescence reader (Perkin Elmer) with excitation at 535 nm and emission at 630 nm. Test compound titration curves were fitted to a four-parameter sigmoidal curve after normalizing the effect of the test compound to the effect of the positive control (4 10^−4 M PEP0005/ingenol mebutate). AbsEC50 denotes the concentration of test compound producing 50% effect.

[2] = test system: PMN's (polymorphonuclear leukocytes); test: Neutrophil oxidative burst assay; conditions: Leukocyte, 40 min, read-out: Neutrophil oxidative burst Rel EC50 range
Procedure: PMN's (polymorphonuclear leukocytes) were isolated and purified from fresh buffy coats by sequential sedimentation, density centrifugation and lysis of contaminating erythrocytes. Buffy coats were incubated with 2% methocel for 30-45 min to differentially sediment red blood cells. The leukocyte-rich supernatant was transferred to lymphoprep tubes to remove mononuclear cells by density centrifugation (400×g, 30 min). The pellet was resuspended and any remaining erythrocytes lysed using 0.2% NaCl for 30 sec before restoring isotonicity by the addition of 1.2% NaCl. This step was repeated until the cell pellet appears relatively free of red blood cells. Cells were resuspended in DPBS (Dulbecco's Phosphate Buffered Saline) (w.o. Ca^2+, Mg^2+) and the concentration adjusted to 1.4×10^6 cells/ml in HBSS (Hanks Balanced Salt solution) (w Ca^2+, Mg^2+) containing 0.1% BSA (Bovine Serum Albumin) and 5 mM glucose just prior to assay initiation. Titrated reference and test compounds were pre-mixed with HE (Hydroethidine) (10 μM final assay concentration) before addition to 96-well plates containing 2.5×10^5 cells. Following 40 min incubation at RT, changes in the respiratory burst was estimated by measuring fluorescence at 579 nm (excitation: 485 nm) using an Envision plate reader.
Test compound titration curves were fitted to a four-parameter sigmoidal curve after normalizing the effect of the test compound to the effect of the positive control (5×10^−7 M PEP0005). Rel EC50 denotes the concentration of test compound producing an effect that is midway between the fitted top and bottom. Abs EC50 is the concentration of test compound that provokes a response corresponding to 50% of the maximal effect associated with the positive control (5×10^−7 M PEP0005).

[3] = test system: Primary human epidermal keratinocytes, HeKa; test: HeKa cytokine release (IL-8) assay
Procedure: Primary human epidermal keratinocytes, HeKa, were seeded (10.000 cells/well) in 96-well plates the day before the assay. Test compounds were diluted in DMSO (dimethyl sulfoxide) and further diluted in assay medium and pipetted into wells of 96 well-plates containing HeKa cells. The plates were incubated for 6 h at 37° C. in humidified air with 5% CO2. Plates are centrifuged briefly to spin down cells at 4° C., the supernatant was removed and analysed by Meso Scale Discovery (MSD) 4-spot cytokine assay (Pro-inflammatory II Ultra Sensitive kit, MSD, MD, USA). The MSD assay employs a sandwich immunoassay format where capture antibodies were coated in a patterned array on the bottom of the wells of a 4-Spot-Multi-MSD plate. Standard samples were incubated in the MULTI-SPOT plates as well, and the cytokine (IL-8) binds to its corresponding capture antibody spot. The cytokine level was quantitated on a SECTOR™ Imager using a cytokine-specific Detection Antibody labelled with MSD SULFO-TAG™ reagent.
Test compound titration curves were fitted to a four-parameter sigmoidal curve after normalizing the effect of the test compound to the effect of the positive control (1.5×10^−7 M PEP0005). Rel EC50 denotes the concentration of test compound producing an effect that is midway between the fitted top and bottom.

[4] = 6 h, read-out: HeKa cytokine release (IL-8) Rel EC50 range

| Structure (SMILES) | EC50 [1] | EC50 [2] | EC50 [3, 4] | EC50 ([1]; 30 min at 37° C., PrestoBlue, normalized to 4 10^−4 M PEP0005/ingenol mebutate) | EC50 ([2]; 40 min incubation at RT, normalized to positive control 5×10^−7 M PEP0005) | EC50 ([3]; 6 h at 37° C., normalized to positive control 1.5×10^−7 M PEP0005, read-out: HeKa cytokine release (IL-8) Rel EC50 range) |
| --- | --- | --- | --- | --- | --- | --- |
| COc1ccccc1C(=O)O[C@H]1C(C)=C[C@]23C(=O)[C@@H](C=C(CO)[C@@H](O)[C@]12O)[C@H]1[C@@H](C[C@H]3C)C1(C)C [Compound 312, Ingenol 3-(2-methoxy-benzoate)] | < 150000 nM | < 20 nM | 20 to 100 nM | – | – | – |
| COc1ccc(C(=O)O[C@H]2C(C)=C[C@]34C(=O)[C@@H](C=C(CO)[C@@H](O)[C@]23O)[C@H]2[C@@H](C[C@H]4C)C2(C)C)cc1 [Compound 313, Ingenol 3-(4-methoxy-benzoate)] | < 150000 nM | < 20 nM | < 20 nM | – | – | – |
| CC1=C[C@]23C(=O)[C@@H](C=C(CO)[C@@H](O)[C@]2(O)[C@H]1OC(=O)c1ccc(F)cc1F)[C@H]1[C@@H](C[C@H]3C)C1(C)C [Compound 314, Ingenol 3-(2,4-difluoro-benzoate)] | < 150000 nM | < 20 nM | < 20 nM | – | – | – |
| CC1=C[C@]23C(=O)[C@@H](C=C(CO)[C@@H](O)[C@]2(O)[C@H]1OC(=O)c1c(C)cccc1C)[C@H]1[C@@H](C[C@H]3C)C1(C)C [Compound 315, Ingenol 3-(2,6-dimethyl-benzoate)] | < 150000 nM | < 20 nM | 20 to 100 nM | – | – | – |
| COc1cccc(OC)c1C(=O)O[C@H]1C(C)=C[C@]23C(=O)[C@@H](C=C(CO)[C@@H](O)[C@]12O)[C@H]1[C@@H](C[C@H]3C)C1(C)C [Compound 316, Ingenol 3-(2,6-dimethoxy-benzoate)] | 150000 to 350000 nM | 20 to 100 nM | 20 to 100 nM | – | – | – |
| CC1=C[C@]23C(=O)[C@@H](C=C(CO)[C@@H](O)[C@]2(O)[C@H]1OC(=O)c1cccc2ccccc12)[C@H]1[C@@H](C[C@H]3C)C1(C)C [Compound 319, Ingenol 3-(naphthalene-1-carboxylate)] | < 150000 nM | < 20 nM | < 20 nM | – | – | – |
| CC1=C[C@]23C(=O)[C@@H](C=C(CO)[C@@H](O)[C@]2(O)[C@H]1OC(=O)c1ccccc1-c1ccccc1)[C@H]1[C@@H](C[C@H]3C)C1(C)C [Compound 320, Ingenol 3-(2-phenyl-benzoate)] | < 150000 nM | < 20 nM | < 20 nM | – | – | – |
| CC1=C[C@]23C(=O)[C@@H](C=C(CO)[C@@H](O)[C@]2(O)[C@H]1OC(=O)c1ccccc1Br)[C@H]1[C@@H](C[C@H]3C)C1(C)C [Compound 321, Ingenol 3-(2-bromo-benzoate)] | < 150000 nM | < 20 nM | < 20 nM | – | – | – |
| CC1=C[C@]23C(=O)[C@@H](C=C(CO)[C@@H](O)[C@]2(O)[C@H]1OC(=O)c1ccccc1Oc1ccccc1)[C@H]1[C@@H](C[C@H]3C)C1(C)C [Compound 322, Ingenol 3-(2-phenoxy-benzoate)] | < 150000 nM | < 20 nM | < 20 nM | – | – | – |
| CC1=C[C@]23C(=O)[C@@H](C=C(CO)[C@@H](O)[C@]2(O)[C@H]1OC(=O)c1ccccc1C(C)C)[C@H]1[C@@H](C[C@H]3C)C1(C)C [Compound 323, Ingenol 3-(2-isopropyl-benzoate)] | < 150000 nM | < 20 nM | < 20 nM | – | – | – |
| CC1=C[C@]23C(=O)[C@@H](C=C(CO)[C@@H](O)[C@]2(O)[C@H]1OC(=O)c1ccccc1OC(C)C)[C@H]1[C@@H](C[C@H]3C)C1(C)C [Compound 324, Ingenol 3-(2-isopropoxy-benzoate)] | < 150000 nM | < 20 nM | < 20 nM | – | – | – |
| CC1=C[C@]23C(=O)[C@@H](C=C(CO)[C@@H](O)[C@]2(O)[C@H]1OC(=O)c1c(C)cc(C)cc1C)[C@H]1[C@@H](C[C@H]3C)C1(C)C [Compound 325, Ingenol 3-(2,4,6-trimethyl-benzoate)] | < 150000 nM | < 20 nM | < 20 nM | – | – | – |
| CC1=C[C@]23C(=O)[C@@H](C=C(CO)[C@@H](O)[C@]2(O)[C@H]1OC(=O)c1ccccc1N)[C@H]1[C@@H](C[C@H]3C)C1(C)C [Compound 330, Ingenol 3-(2-amino-benzoate)] | – | – | – | 150000 to 350000 nM | < 20 nM | < 20 nM |
| CC1=C[C@]23C(=O)[C@@H](C=C(CO)[C@@H](O)[C@]2(O)[C@H]1OC(=O)c1ccccc1NCc1ccccc1)[C@H]1[C@@H](C[C@H]3C)C1(C)C [Compound 331, Ingenol 3-(2-benzylamino-benzoate)] | < 150000 nM | < 20 nM | < 20 nM | – | – | – |
| CC1=C[C@]23C(=O)[C@@H](C=C(CO)[C@@H](O)[C@]2(O)[C@H]1OC(=O)c1c(C)cccc1NCc1ccccc1)[C@H]1[C@@H](C[C@H]3C)C1(C)C [Compound 332, Ingenol 3-(2-benzylamino-6-methyl-benzoate)] | < 150000 nM | 20 to 100 nM | < 20 nM | – | – | – |
| COc1cccc(NCc2ccccc2)c1C(=O)O[C@H]1C(C)=C[C@]23C(=O)[C@@H](C=C(CO)[C@@H](O)[C@]12O)[C@H]1[C@@H](C[C@H]3C)C1(C)C [Compound 333, Ingenol 3-(2-benzylamino-6-methoxy-benzoate)] | < 150000 nM | 20 to 100 nM | < 20 nM | – | – | – |
| CC1=C[C@]23C(=O)[C@@H](C=C(CO)[C@@H](O)[C@]2(O)[C@H]1OC(=O)c1c(C)cccc1N)[C@H]1[C@@H](C[C@H]3C)C1(C)C [Compound 335, Ingenol 3-(2-amino-6-methyl-benzoate)] | < 150000 nM | < 20 nM | < 20 nM | – | – | – |
| CC1=C[C@]23C(=O)[C@@H](C=C(CO)[C@@H](O)[C@]2(O)[C@H]1OC(=O)c1ccccc1Nc1ccccc1)[C@H]1[C@@H](C[C@H]3C)C1(C)C [Compound 336, Ingenol 3-(2-phenylamino-benzoate)] | < 150000 nM | < 20 nM | < 20 nM | – | – | – |
| CNc1cccc(C)c1C(=O)O[C@H]1C(C)=C[C@]23C(=O)[C@@H](C=C(CO)[C@@H](O)[C@]12O)[C@H]1[C@@H](C[C@H]3C)C1(C)C [Compound 339, Ingenol 3-(2-methyl-6-methylamino-benzoate)] | < 150000 nM | 20 to 100 nM | < 20 nM | – | – | – |
| CC1=C[C@]23C(=O)[C@@H](C=C(CO)[C@@H](O)[C@]2(O)[C@H]1OC(=O)c1c(N)cccc1Cl)[C@H]1[C@@H](C[C@H]3C)C1(C)C [Compound 340, Ingenol 3-(2-amino-6-chloro-benzoate)] | < 150000 nM | < 20 nM | 20 to 100 nM | – | – | – |
